Assay results taken from patent publication US10092570B2 (Incyte Corporation, priority 2011, dated 2018).

Legend:
PI3Kδ (p110δ/p85α) = PI3Kδ (p110δ/p85α) (Homo sapiens (Human), UniProt O00329); assay: Example A3: PI3Kδ scintillation proximity assay; type: biochemical; details: scintillation proximity assay, 20 μM ATP, 4 nM PI3Kδ; read-out: PI3Kδ SPA IC50
In short: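 p110δ/p85α (4 nM) phosphorylated 20 μM PIP2 with 20 μM ATP plus [γ-33P]ATP in MOPS pH 6.7, MgCl2, DTT, CHAPS, 0.5% DMSO, at RT. Stopped with EDTA/excess ATP, product captured on WGA SPA beads overnight and counted; IC50 from percent control activity versus log inhibitor.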

[1] = tested on: Pfeiffer cell line (diffuse large B cell lymphoma); assay: Example B2: Pfeiffer cell proliferation assay; type: cell-based; details: Homo sapiens, Pfeiffer, Pfeiffer cells, [3H]-thymidine incorporation
Method: Pfeiffer cell line (diffuse large B cell lymphoma) are purchased from ATCC (Manassas, Va.) and maintained in the culture medium recommended (RPMI and 10% FBS). To measure the anti-proliferation activity of the compounds, the Pfeiffer cells are plated with the culture medium (2×10^3 cells/well/per 200 μl) into 96-well ultra-low binding plates (Corning, Corning, N.Y.), in the presence or absence of a concentration range of test compounds. After 3-4 days, [^3H]-thymidine (1 μCi/well) (PerkinElmer, Boston, Mass.) in PBS is then added to the cell culture for an additional 12 hours before the incorporated radioactivity is separated by filtration with water through GF/B filters (Packard Bioscience, Meridenj, Conn.) and measured by liquid scintillation counting with a TopCount (Packard Bioscience).

PI3K isoform δ = PI3K isoform δ (Homo sapiens (Human), UniProt O00329); assay: Example A2: PI3K enzyme assay ([γ-33P]ATP filter plate), PI3Kδ; type: biochemical; details: as determined by Assay A2
Method: PI3K isoforms α, β, δ and γ are purchased from Millipore (Bedford, Mass.).
Inhibitors are first diluted serially in DMSO and added to the plate wells before the addition of other reaction components. The final concentration of DMSO in the assay is 0.5%. The PI3K assays are carried out at room temperature in 20 mM MOPS, pH 6.7, 10 mM MgCl2, 5 mM DTT and CHAPS 0.03%. The reaction mixture is prepared containing 50 μM PIP2, kinase and varying concentration of inhibitors. Reactions are initiated by the addition of ATP containing 2.2 μCi [γ-^33P]ATP to a final concentration of 1000 μM. […] Reactions are incubated for 180 minutes and terminated by the addition of 100 μL of 1 M potassium phosphate pH 8.0, 30 mM EDTA quench buffer. A 100 μL aliquot of the reaction solution are then transferred to 96-well Millipore MultiScreen IP 0.45 μm PVDF filter plate (The filter plate is prewetted with 200 μL 100% ethanol, distilled water, and 1 M potassium phosphate pH 8.0, respectively). […] After drying by aspiration and blotting, the plate is air dried in an incubator at 37° C. overnight. Packard TopCount adapter (Millipore) is then attached to the plate followed with addition of 120 μL Microscint 20 scintillation cocktail (Perkin Elmer) in each well. After the plate sealing, the radioactivity of the product is determined by scintillation counting on Topcount (Perkin-Elmer). […]

Sequence of PI3Kδ (p110δ/p85α) (O00329 whole entry): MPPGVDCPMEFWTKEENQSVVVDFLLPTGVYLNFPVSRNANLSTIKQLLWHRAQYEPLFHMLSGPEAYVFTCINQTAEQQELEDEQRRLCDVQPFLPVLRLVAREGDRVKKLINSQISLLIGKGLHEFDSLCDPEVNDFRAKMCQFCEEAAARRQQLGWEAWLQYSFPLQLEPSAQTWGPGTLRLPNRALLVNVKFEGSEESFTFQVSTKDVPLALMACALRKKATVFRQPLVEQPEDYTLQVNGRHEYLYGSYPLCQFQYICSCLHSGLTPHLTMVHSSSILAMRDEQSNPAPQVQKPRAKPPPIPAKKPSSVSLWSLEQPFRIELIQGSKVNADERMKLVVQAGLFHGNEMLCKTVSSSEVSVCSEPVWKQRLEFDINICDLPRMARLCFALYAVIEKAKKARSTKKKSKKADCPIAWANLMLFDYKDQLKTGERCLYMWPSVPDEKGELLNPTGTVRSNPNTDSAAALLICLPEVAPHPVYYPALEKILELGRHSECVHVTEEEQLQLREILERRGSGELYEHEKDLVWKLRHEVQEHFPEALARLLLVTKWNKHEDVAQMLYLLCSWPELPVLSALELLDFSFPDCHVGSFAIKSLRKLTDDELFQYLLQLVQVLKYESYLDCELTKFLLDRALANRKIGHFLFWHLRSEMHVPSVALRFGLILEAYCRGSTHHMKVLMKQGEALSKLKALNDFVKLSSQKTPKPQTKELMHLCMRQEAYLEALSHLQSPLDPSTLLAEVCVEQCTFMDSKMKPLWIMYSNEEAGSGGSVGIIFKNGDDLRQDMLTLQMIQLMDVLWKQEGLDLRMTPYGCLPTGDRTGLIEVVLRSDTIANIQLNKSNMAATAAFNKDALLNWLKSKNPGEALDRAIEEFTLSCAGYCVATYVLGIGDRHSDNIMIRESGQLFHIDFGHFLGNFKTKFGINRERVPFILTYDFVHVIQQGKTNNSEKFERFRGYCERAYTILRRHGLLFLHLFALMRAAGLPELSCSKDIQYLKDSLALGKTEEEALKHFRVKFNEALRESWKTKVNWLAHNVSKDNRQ
Sequence of PI3Kδ (p110δ/p85α) (P27986 whole entry partner): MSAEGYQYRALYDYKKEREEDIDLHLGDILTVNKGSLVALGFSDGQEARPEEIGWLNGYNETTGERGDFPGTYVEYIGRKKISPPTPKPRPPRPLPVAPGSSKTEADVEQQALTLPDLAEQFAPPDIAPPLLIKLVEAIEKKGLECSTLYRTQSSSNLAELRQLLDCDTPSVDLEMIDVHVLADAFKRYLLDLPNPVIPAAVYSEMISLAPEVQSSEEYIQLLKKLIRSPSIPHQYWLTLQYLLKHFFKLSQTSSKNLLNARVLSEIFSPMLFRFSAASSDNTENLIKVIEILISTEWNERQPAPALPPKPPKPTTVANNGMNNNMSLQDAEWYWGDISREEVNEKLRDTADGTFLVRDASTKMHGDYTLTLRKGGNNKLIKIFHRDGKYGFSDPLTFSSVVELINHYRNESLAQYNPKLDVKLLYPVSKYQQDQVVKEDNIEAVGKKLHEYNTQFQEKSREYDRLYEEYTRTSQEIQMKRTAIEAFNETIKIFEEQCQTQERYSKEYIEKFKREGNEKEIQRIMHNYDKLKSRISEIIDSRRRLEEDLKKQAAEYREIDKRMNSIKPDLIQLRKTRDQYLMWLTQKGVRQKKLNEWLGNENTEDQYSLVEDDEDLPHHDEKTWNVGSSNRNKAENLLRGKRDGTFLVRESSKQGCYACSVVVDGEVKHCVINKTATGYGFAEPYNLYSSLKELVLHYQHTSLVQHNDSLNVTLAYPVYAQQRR
Sequence of PI3K isoform δ (O00329 whole entry, canonical isoform): as the sequence (O00329 whole entry) above
Sequence of PI3K isoform δ (P27986 whole entry partner, canonical isoform): as the sequence (P27986 whole entry partner) above

| IC50 (PI3Kδ (p110δ/p85α)) | IC50 [1] | IC50 (PI3K isoform δ) | Compound |
| --- | --- | --- | --- |
| < 10 nM | < 10 nM | – | COc1c(C(C)n2nc(C)c3c(N)ncnc32)cc(Cl)c(C#N)c1C1CN(C[C@H](C)O)C1 (stereo partly drawn) [Example 269, 4-[1-(4-Amino-3-methyl-1H-pyrazolo[3,4-d]pyrimidin-1-yl)ethyl]-6-chloro-2-{1-[(2S)-2-hydroxypropyl]azetidin-3-yl}-3-methoxybenzonitrile] |
| < 10 nM | < 10 nM | – | COc1c(C(C)n2nc(C)c3c(N)ncnc32)cc(Cl)c(C#N)c1C1CN(C[C@@H](C)O)C1 (stereo partly drawn) [Example 270, 4-[1-(4-Amino-3-methyl-1H-pyrazolo[3,4-d]pyrimidin-1-yl)ethyl]-6-chloro-2-{1-[(2R)-2-hydroxypropyl]azetidin-3-yl}-3-methoxybenzonitrile] |
| – | – | > 500 nM | COc1c([C@@H](C)n2nc(C)c3c(N)ncnc32)cc(Cl)c(C#N)c1C1CN(C[C@H](C)O)C1 [Example 361, 4-((R)-1-(4-amino-3-methyl-1H-pyrazolo[3,4-d]pyrimidin-1-yl)ethyl)-6-chloro-2-(1-((S)-2-hydroxypropyl)azetidin-3-yl)-3-methoxybenzonitrile] |
